In PMC9596378, “Discovery and molecular basis of subtype-selective cyclophilin inhibitors” (Nature Chemical Biology, 2022):
Values joined by “and” are separate entries in the source; they are usually repeats but may differ in a detail not shown here. Equal values may be shown once.

Experiments:
Test in all cases: Chymotrypsin coupled prolyl-isomerase assay
Assay type in all cases: biochemical
[1] = molecular target: T1, CypE (Homo sapiens, UniProt Q9UNP9); details: for IC50: wild-type CypE, read-out: Wild-Type Cyclophilin Prolyl Isomerase Inhibition IC50 Values, CypE; for prolyl-isomerase activity (raw dose-response value): CypE, in s^-1
T1 construct: PPIE (UniProtKB Entry Q9UNP9: residues 131–301); host or cells: E. coli BL21(DE3)
T1 sequence (Q9UNP9 131-301): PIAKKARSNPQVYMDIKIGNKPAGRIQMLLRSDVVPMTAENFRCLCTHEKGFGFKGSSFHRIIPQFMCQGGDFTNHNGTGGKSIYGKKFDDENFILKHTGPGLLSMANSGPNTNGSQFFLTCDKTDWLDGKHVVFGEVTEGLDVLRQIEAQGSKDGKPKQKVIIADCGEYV
Protocol: (§1) Adapting a previously described protocol, with an Agilent Bravo Velocity 11 with a 384ST head, 90 µL assay buffer (25 mM HEPES pH 7.3, 100 mM NaCl, 0.01% Triton X-100) containing 5.28 nM cyclophilin was added into a flat, clear-bottom, black 384-well plate pre-chilled in a Corning CoolBox at 2–3 °C. Five microliters of compound pre-dissolved in 5% DMSO/assay buffer was then added to appropriate wells and incubated at 2–3 °C for 5 min. Five microliters of 0.5 mM α-chymotrypsin from bovine pancreas (Type II, lyophilized powder, Millipore-Sigma) in 20% 1 mM HCl/Assay Buffer was then added to each well and incubated at 2–3 °C for 5 min. The plate was then quickly transferred to a FLIPR Tetra High-Throughput Cellular Screening System (Molecular Devices). Using the internal liquid handling system of the FLIPR, 1 µL 0.5 mM Suc-AAPF-AMC (Chymotrypsin Substrate II, Millipore-Sigma) dissolved in 0.55 M LiCl/2,2,2-trifluoroethanol was added to each well, which was then mixed for 5 s, followed by immediate fluorescence measurements every 1 s for 330 s using a 360–380 nm excitation LED module and a 400–460 nm emission filter. Final concentrations of the plate include 5 nM cyclophilin, 0.25% DMSO, 25 µM α-chymotrypsin, 5 µM Suc-AAPF-AMC. Raw fluorescence data was analyzed by non-linear regression analysis with Prism v.9 by fitting one-phase association curves to each well. […] Rate constants calculated for each well (s^−1) were then normalized to substrate only (no prolyl-isomerase) and enzyme + substrate only controls. IC50 values were calculated as the value at which 50% inhibition was achieved on the non-linear regression fitted curve of each compound.

[2] = molecular target: T2, CypH (Homo sapiens, UniProt O43447); details: for IC50: wild-type CypH, read-out: Wild-Type Cyclophilin Prolyl Isomerase Inhibition IC50 Values, CypH; for prolyl-isomerase activity (raw dose-response value): CypH
T2 construct: PPIH (UniProtKB Entry O43447: residues 1–177); His6 with TEV site (2BT vector leader) (N); made in house; host or cells: E. coli BL21(DE3)
T2 sequence (O43447 whole entry, the tested form may be a part): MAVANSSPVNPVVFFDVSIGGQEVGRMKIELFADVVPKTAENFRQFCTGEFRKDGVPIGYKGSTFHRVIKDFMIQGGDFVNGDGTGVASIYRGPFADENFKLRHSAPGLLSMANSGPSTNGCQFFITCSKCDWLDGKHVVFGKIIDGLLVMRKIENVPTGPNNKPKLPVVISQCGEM
Protocol: as §1

[3] = molecular target: T3, CypA (Homo sapiens, UniProt P62937); details: for IC50: wild-type CypA, read-out: Wild-Type Cyclophilin Prolyl Isomerase Inhibition IC50 Values, CypA; for prolyl-isomerase activity (raw dose-response value): CypA, in s^-1
T3 construct: PPIA (UniProtKB Entry P62937: residues 1–165); made in house; host or cells: E. coli BL21(DE3)
T3 sequence (P62937 whole entry, the tested form may be a part): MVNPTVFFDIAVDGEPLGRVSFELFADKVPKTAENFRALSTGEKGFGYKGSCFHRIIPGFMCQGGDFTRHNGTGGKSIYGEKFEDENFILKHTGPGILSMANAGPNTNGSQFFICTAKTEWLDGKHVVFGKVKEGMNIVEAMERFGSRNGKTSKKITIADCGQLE
Protocol: as §1

[4] = molecular target: T4, CypG (Homo sapiens, UniProt Q13427); details: for IC50: wild-type CypG, read-out: Wild-Type Cyclophilin Prolyl Isomerase Inhibition IC50 Values, CypG; for prolyl-isomerase activity (raw dose-response value): CypG, in s^-1
T4 construct: PPIG (UniProtKB Entry Q13427: residues 1–179); His6 with thrombin site (pET28a LIC leader) (N); host or cells: E. coli BL21(DE3)
T4 sequence (Q13427 1-179): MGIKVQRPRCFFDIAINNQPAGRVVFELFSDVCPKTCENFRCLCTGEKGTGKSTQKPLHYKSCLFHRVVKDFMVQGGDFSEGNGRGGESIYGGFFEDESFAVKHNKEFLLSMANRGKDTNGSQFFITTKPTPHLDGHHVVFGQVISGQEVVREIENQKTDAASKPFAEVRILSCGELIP
Protocol: as §1

[5] = molecular target: T5, CypC (Homo sapiens, UniProt P45877); details: for IC50: wild-type CypC, read-out: Wild-Type Cyclophilin Prolyl Isomerase Inhibition IC50 Values, CypC; for prolyl-isomerase activity (raw dose-response value): CypC, in s^-1
T5 construct: PPIC (UniProtKB Entry P45877: residues 24–212); host or cells: E. coli BL21(DE3)
T5 sequence (P45877 24-212): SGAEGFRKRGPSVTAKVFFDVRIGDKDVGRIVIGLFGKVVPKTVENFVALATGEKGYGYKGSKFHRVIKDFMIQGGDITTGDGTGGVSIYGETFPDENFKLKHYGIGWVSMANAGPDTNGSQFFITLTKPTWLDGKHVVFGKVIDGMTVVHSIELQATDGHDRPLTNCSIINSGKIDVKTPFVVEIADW
Protocol: as §1

With `C[N+]1=C(C=CC=CC=C2N(CCCCCC(=O)NCCNC(=O)C3CCNC(=O)C=CC(=O)N4CCCC(Cc5ccccc5)(C4)C(=O)NC(Cc4ccc(-c5ccc(CC(C(=O)O)C(=O)O)cc5)cc4)C(=O)NCc4ccccc4CC(=O)N3)c3ccccc3C2(C)C)C(C)(C)c2ccccc21` (stereo not shown) [*B52-Cy5] the IC50 [1] was greater than 10 µM, the IC50 [2] was greater than 10 µM and the IC50 [3] was greater than 10 µM. The IC50 [4] was greater than 10 µM and the IC50 [5] was greater than 10 µM.

`C[N+]1=C(C=CC=CC=C2N(CCCCCC(=O)NCCNC(=O)C3CCNC(=O)C=CC(=O)N4CCCC(Cc5ccccc5)(C4)C(=O)NC(Cc4ccc(-c5ccc(C(CC(=O)O)CC(=O)O)cc5)cc4)C(=O)NCc4ccccc4CC(=O)N3)c3ccccc3C2(C)C)C(C)(C)c2ccccc21` (stereo not shown) [*B53-Cy5] showed an IC50 [1] greater than 10 µM, an IC50 [2] greater than 10 µM and an IC50 [3] greater than 10 µM. For the same compound, the IC50 [4] was greater than 10 µM and the IC50 [5] was greater than 10 µM.

In the case of `NCCOCCNC(=O)[C@@H]1CCNC(=O)/C=C/C(=O)N2CCC[C@](Cc3ccccc3)(C2)C(=O)N[C@@H](Cc2ccc(C(=O)c3ccccc3)cc2)C(=O)NCc2ccccc2CC(=O)N1` [Compound B1], the “prolyl-isomerase activity (raw dose-response value)” value (shortened to “prolyl-isomerase activity”) ([1]; dose 0.00244141 µM) is reported as 0.1145 and 0.1032 and 0.1074, the “prolyl-isomerase activity” value ([1]; dose 0.00488281 µM) is reported as 0.1194 and 0.1024 and 0.1063 and the “prolyl-isomerase activity” value ([1]; dose 0.00976562 µM) is reported as 0.1019 and 0.09727 and 0.09617. For the same compound, the “prolyl-isomerase activity” value ([1]; dose 0.0195312 µM) was 0.09053 and 0.08335 and 0.08401, the “prolyl-isomerase activity” value ([1]; dose 0.0390625 µM) was 0.08777 and 0.07578 and 0.07602 and the “prolyl-isomerase activity” value ([1]; dose 0.078125 µM) was 0.06552 and 0.06127 and 0.05879. For the same compound, the “prolyl-isomerase activity” value ([1]; dose 0.15625 µM) was 0.05184 and 0.04744 and 0.04506, the “prolyl-isomerase activity” value ([1]; dose 0.3125 µM) was 0.04144 and 0.0397 and 0.03654 and the “prolyl-isomerase activity” value ([1]; dose 0.625 µM) was 0.03167 and 0.02791 and 0.02701. For the same compound, the “prolyl-isomerase activity” value ([1]; dose 1.25 µM) was 0.02174 and 0.02048 and 0.01944, the “prolyl-isomerase activity” value ([1]; dose 2.5 µM) was 0.0149 and 0.01299 and 0.01222 and the IC50 [1] was 0.099 µM. For the same compound, the “prolyl-isomerase activity” value ([2]; dose 0.0228624 µM) was 0.05823 and 0.06198 and 0.07295, the “prolyl-isomerase activity” value ([2]; dose 0.0685871 µM) was 0.0659 and 0.06156 and 0.06865 and the “prolyl-isomerase activity” value ([2]; dose 0.205761 µM) was 0.06027 and 0.0617 and 0.06475. For the same compound, the “prolyl-isomerase activity” value ([2]; dose 0.617284 µM) was 0.05924 and 0.06278 and 0.06988, the “prolyl-isomerase activity” value ([2]; dose 1.85185 µM) was 0.05446 and 0.06201 and 0.06094 and the “prolyl-isomerase activity” value ([2]; dose 5.55556 µM) was 0.05231 and 0.05643 and 0.05555. For the same compound, the “prolyl-isomerase activity” value ([2]; dose 16.6667 µM) was 0.04539 and 0.04092 and 0.04707, the “prolyl-isomerase activity” value ([2]; dose 50 µM) was 0.02854 and 0.02769 and 0.02761 and the IC50 [2] was 20 µM. For the same compound, the “prolyl-isomerase activity” value ([3]; dose 0.00114312 µM) was 0.07489 and 0.0818 and 0.1208, the “prolyl-isomerase activity” value ([3]; dose 0.00342935 µM) was 0.107 and 0.09816 and 0.1302 and the “prolyl-isomerase activity” value ([3]; dose 0.0102881 µM) was 0.09417 and 0.08156 and 0.09814. For the same compound, the “prolyl-isomerase activity” value ([3]; dose 0.0308642 µM) was 0.0846 and 0.08188 and 0.08679, the “prolyl-isomerase activity” value ([3]; dose 0.0925926 µM) was 0.06244 and 0.05553 and 0.05478 and the “prolyl-isomerase activity” value ([3]; dose 0.277778 µM) was 0.04513 and 0.03865 and 0.03913. The “prolyl-isomerase activity” value ([3]; dose 0.833333 µM) was 0.02761 and 0.02378 and 0.02924, the “prolyl-isomerase activity” value ([3]; dose 2.5 µM) was 0.01703 and 0.01931 and 0.02247 and the IC50 [3] was 0.07 µM. The “prolyl-isomerase activity” value ([4]; dose 6.125 µM) was 0.0775 and 0.0774 and 0.07959, the “prolyl-isomerase activity” value ([4]; dose 12.5 µM) was 0.07476 and 0.07359 and 0.07437 and the “prolyl-isomerase activity” value ([4]; dose 25 µM) was 0.06566 and 0.06625 and 0.06165. For the same compound, the “prolyl-isomerase activity” value ([4]; dose 50 µM) was 0.05369 and 0.05651 and 0.05019, the “prolyl-isomerase activity” value ([4]; dose 100 µM) was 0.03357 and 0.03853 and 0.03559 and the IC50 [4] was 70 µM. For the same compound, the “prolyl-isomerase activity” value ([5]; dose 0.00244141 µM) was 0.04561 and 0.0417 and 0.04308, the “prolyl-isomerase activity” value ([5]; dose 0.00488281 µM) was 0.04435 and 0.04111 and 0.04239 and the “prolyl-isomerase activity” value ([5]; dose 0.00976562 µM) was 0.04356 and 0.0401 and 0.04072. The “prolyl-isomerase activity” value ([5]; dose 0.0195312 µM) was 0.03963 and 0.03695 and 0.03646, the “prolyl-isomerase activity” value ([5]; dose 0.0390625 µM) was 0.035 and 0.03188 and 0.03161 and the “prolyl-isomerase activity” value ([5]; dose 0.078125 µM) was 0.02847 and 0.0253 and 0.02646. The “prolyl-isomerase activity” value ([5]; dose 0.15625 µM) was 0.02267 and 0.02159 and 0.02162, the “prolyl-isomerase activity” value ([5]; dose 0.3125 µM) was 0.01917 and 0.0189 and 0.01739 and the “prolyl-isomerase activity” value ([5]; dose 0.625 µM) was 0.01677 and 0.01627 and 0.01518. For the same compound, the “prolyl-isomerase activity” value ([5]; dose 1.25 µM) was 0.01345 and 0.01256 and 0.01367, the “prolyl-isomerase activity” value ([5]; dose 2.5 µM) was 0.009144 and 0.00999 and 0.01009 and the IC50 [5] was 0.079 µM.
